Assay results from paper PMC9250534, “Synthesis and direct assay of large macrocycle diversities by combinatorial late-stage modification at picomole scale” (Nature Communications, 2022).
Numbered stars: 1 amine (or outer) side, 2 acyl side, 3 side chain; on linkers, the order of the positions; unused ones are H or OH. Bridge positions count the residues as written; N and C are the ends. Square brackets hold non-standard residues; d marks the D form. Peptide text beside a SMILES is read from it. * marks the point of attachment. 2Thenoyl(5-Cl) = O=C(c1ccc(Cl)s1)*; Benzoyl(4-Cl) = O=C(c1ccc(Cl)cc1)*; Cysteamide = C(CS[*:3])N[*:1]; X1 = O=C(/C=C/c1ccccc1)*; Dap = NC[C@H](N)C(=O)O; Mpa = O=C(O)CCS

Biological target: MDM2 (Homo sapiens, UniProt Q00987)
Sequence (Q00987 whole entry): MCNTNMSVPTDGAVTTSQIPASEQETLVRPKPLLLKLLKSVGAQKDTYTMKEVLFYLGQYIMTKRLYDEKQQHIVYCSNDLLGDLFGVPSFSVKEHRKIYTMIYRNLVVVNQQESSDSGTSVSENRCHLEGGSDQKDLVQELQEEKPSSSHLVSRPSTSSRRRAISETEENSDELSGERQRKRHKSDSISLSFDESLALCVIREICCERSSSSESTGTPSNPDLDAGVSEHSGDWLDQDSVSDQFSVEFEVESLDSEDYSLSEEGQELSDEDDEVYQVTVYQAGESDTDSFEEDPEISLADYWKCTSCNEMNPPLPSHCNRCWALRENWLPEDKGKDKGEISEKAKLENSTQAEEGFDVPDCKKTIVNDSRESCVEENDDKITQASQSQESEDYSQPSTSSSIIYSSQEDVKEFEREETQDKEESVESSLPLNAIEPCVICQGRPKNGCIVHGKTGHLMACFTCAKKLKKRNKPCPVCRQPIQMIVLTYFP
Assay: MDM2 binding screen: displacement of fluorescent p53 peptide probe FP53 (fluorescence polarization)
Settings: crude macrocycle reactions; for fraction fluorescent probe displaced, Screen: initial screen
Procedure, shortened: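 Macrocycle reaction products at a final 10 µM were tested for displacement of a p53-based fluorescent peptide from human MDM2. Fluorescence anisotropy (ex 485/em 535 nm) was read once per macrocycle at 25 °C.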

O=C1CCSSCCNC(=O)C2CN(C(=O)C=Cc3ccccc3)CCN2C(=O)C(Cc2c[nH]c3ccccc23)NC(=O)c2cccc(c2)CN1 (centres unmarked) [X B5 W D7 Acid 91]
fraction fluorescent probe displaced, Screen (Acid 91): 0.03
fraction fluorescent probe displaced, Replicate (Acid 91): -0.00827

O=C1CCSSCCNC(=O)[C@H](Cc2ccccc2)NC(=O)[C@@H]2CCCN2C(=O)[C@H](CNC(=O)c2ccc(Cl)s2)N1 [X D3 B1 F Acid 14] ([Mpa][Dap](2Thenoyl(5-Cl))PF-Cysteamide; disulfide 1-C)
fraction fluorescent probe displaced, Screen (Acid 14): 0.11
fraction fluorescent probe displaced, Replicate (Acid 14): 0.07

O=C1CCSSCCNC(=O)[C@H](Cc2ccccc2)NC(=O)[C@@H]2CCCN2C(=O)[C@H](CNC(=O)c2ccc(Cl)cc2)N1 [X D3 B1 F Acid 25] ([Mpa][Dap](Benzoyl(4-Cl))PF-Cysteamide; disulfide 1-C)
fraction fluorescent probe displaced, Screen (Acid 25): 0.15
fraction fluorescent probe displaced, Replicate (Acid 25): 0.12

O=C(/C=C/c1ccccc1)NC[C@@H]1NC(=O)CCSSCCNC(=O)[C@H](Cc2ccccc2)NC(=O)[C@@H]2CCCN2C1=O [X D3 B1 F Acid 91] ([Mpa][Dap](X1)PF-Cysteamide; disulfide 1-C)
fraction fluorescent probe displaced, Screen (Acid 91): 0.00268
fraction fluorescent probe displaced, Replicate (Acid 91): -0.00827

O=C1CCSSCCNC(=O)[C@H](Cc2c[nH]c3ccccc23)NC(=O)[C@@H]2CCCN2C(=O)[C@H](CNC(=O)c2ccc(Cl)s2)N1 [X D3 B1 W Acid 14] ([Mpa][Dap](2Thenoyl(5-Cl))PW-Cysteamide; disulfide 1-C)
fraction fluorescent probe displaced, Screen (Acid 14): 0.17
fraction fluorescent probe displaced, Replicate (Acid 14): 0.10

O=C1CCSSCCNC(=O)[C@H](Cc2c[nH]c3ccccc23)NC(=O)[C@@H]2CCCN2C(=O)[C@H](CNC(=O)c2ccc(Cl)cc2)N1 [X D3 B1 W Acid 25] ([Mpa][Dap](Benzoyl(4-Cl))PW-Cysteamide; disulfide 1-C)
fraction fluorescent probe displaced, Screen (Acid 25): 0.28
fraction fluorescent probe displaced, Replicate (Acid 25): 0.15

O=C(/C=C/c1ccccc1)NC[C@@H]1NC(=O)CCSSCCNC(=O)[C@H](Cc2c[nH]c3ccccc23)NC(=O)[C@@H]2CCCN2C1=O [X D3 B1 W Acid 91] ([Mpa][Dap](X1)PW-Cysteamide; disulfide 1-C)
fraction fluorescent probe displaced, Screen (Acid 91): -0.0241
fraction fluorescent probe displaced, Replicate (Acid 91): 0.04

O=C1CCSSCCNC(=O)[C@H](Cc2ccccc2)NC(=O)CCNC(=O)[C@H](CNC(=O)c2ccc(Cl)s2)N1 [X D3 B2 F Acid 14]
fraction fluorescent probe displaced, Screen (Acid 14): 0.17
fraction fluorescent probe displaced, Replicate (Acid 14): 0.10

O=C(/C=C/c1ccccc1)NC[C@@H]1NC(=O)CCSSCCNC(=O)[C@H](Cc2ccccc2)NC(=O)CCNC1=O [X D3 B2 F Acid 91]
fraction fluorescent probe displaced, Screen (Acid 91): 0.08
fraction fluorescent probe displaced, Replicate (Acid 91): 0.04

O=C1CCSSCCNC(=O)[C@H](Cc2c[nH]c3ccccc23)NC(=O)CCNC(=O)[C@H](CNC(=O)c2ccc(Cl)s2)N1 [X D3 B2 W Acid 14]
fraction fluorescent probe displaced, Screen (Acid 14): 0.17
fraction fluorescent probe displaced, Replicate (Acid 14): 0.25

O=C1CCSSCCNC(=O)[C@H](Cc2c[nH]c3ccccc23)NC(=O)CCNC(=O)[C@H](CNC(=O)c2ccc(Cl)cc2)N1 [X D3 B2 W Acid 25]
fraction fluorescent probe displaced, Screen (Acid 25): 0.12
fraction fluorescent probe displaced, Replicate (Acid 25): 0.0465

O=C(C=Cc1ccccc1)NCC1NC(=O)CCSSCCNC(=O)C(Cc2c[nH]c3ccccc23)NC(=O)CCNC1=O (centres unmarked) [X D3 B2 W Acid 91]
fraction fluorescent probe displaced, Screen (Acid 91): 0.11
fraction fluorescent probe displaced, Replicate (Acid 91): -0.0333

O=C1CCSSCCNC(=O)[C@H](Cc2ccccc2)NC(=O)[C@H]2CCCN(C2)C(=O)[C@H](CNC(=O)c2ccc(Cl)s2)N1 [X D3 B4 F Acid 14]
fraction fluorescent probe displaced, Screen (Acid 14): 0.0241
fraction fluorescent probe displaced, Replicate (Acid 14): 0.10

O=C1CCSSCCNC(=O)[C@H](Cc2c[nH]c3ccccc23)NC(=O)[C@H]2CCCN(C2)C(=O)[C@H](CNC(=O)c2ccc(Cl)s2)N1 [X D3 B4 W Acid 14]
fraction fluorescent probe displaced, Screen (Acid 14): 0.08
fraction fluorescent probe displaced, Replicate (Acid 14): 0.12

O=C1CCSSCCNC(=O)[C@H](Cc2c[nH]c3ccccc23)NC(=O)[C@H]2CCCN(C2)C(=O)[C@H](CNC(=O)c2ccc(Cl)cc2)N1 [X D3 B4 W Acid 25]
fraction fluorescent probe displaced, Screen (Acid 25): 0.25
fraction fluorescent probe displaced, Replicate (Acid 25): 0.20

O=C(C=Cc1ccccc1)NCC1NC(=O)CCSSCCNC(=O)C(Cc2c[nH]c3ccccc23)NC(=O)C2CCCN(C2)C1=O (centres unmarked) [X D3 B4 W Acid 91]
fraction fluorescent probe displaced, Screen (Acid 91): 0.11
fraction fluorescent probe displaced, Replicate (Acid 91): 0.09

O=C(/C=C/c1ccccc1)NC[C@@H]1NC(=O)CCSSCCNC(=O)[C@H](Cc2ccccc2)NC(=O)c2cccc(c2)CNC1=O [X D3 B5 F Acid 91]
fraction fluorescent probe displaced, Screen (Acid 91): -0.18
fraction fluorescent probe displaced, Replicate (Acid 91): -0.0333

O=C1CCSSCCNC(=O)[C@H](Cc2c[nH]c3ccccc23)NC(=O)c2cccc(c2)CNC(=O)[C@H](CNC(=O)c2ccc(Cl)s2)N1 [X D3 B5 W Acid 14]
fraction fluorescent probe displaced, Screen (Acid 14): 0.14
fraction fluorescent probe displaced, Replicate (Acid 14): 0.20

O=C1CCSSCCNC(=O)[C@H](Cc2c[nH]c3ccccc23)NC(=O)c2cccc(c2)CNC(=O)[C@H](CNC(=O)c2ccc(Cl)cc2)N1 [X D3 B5 W Acid 25]
fraction fluorescent probe displaced, Screen (Acid 25): 0.25
fraction fluorescent probe displaced, Replicate (Acid 25): 0.10

O=C(C=Cc1ccccc1)NCC1NC(=O)CCSSCCNC(=O)C(Cc2c[nH]c3ccccc23)NC(=O)c2cccc(c2)CNC1=O (centres unmarked) [X D3 B5 W Acid 91]
fraction fluorescent probe displaced, Screen (Acid 91): 0.08
fraction fluorescent probe displaced, Replicate (Acid 91): 0.14

O=C(/C=C/c1ccccc1)NC[C@@H]1NC(=O)CCSSCCNC(=O)[C@@H]2CCCN2C(=O)[C@H](Cc2ccccc2)NC1=O [X D3 F B1 Acid 91] ([Mpa][Dap](X1)FP-Cysteamide; disulfide 1-C)
fraction fluorescent probe displaced, Screen (Acid 91): -0.05
fraction fluorescent probe displaced, Replicate (Acid 91): -0.06

O=C1CCNC(=O)[C@H](Cc2ccccc2)NC(=O)[C@H](CNC(=O)c2ccc(Cl)s2)NC(=O)CCSSCCN1 [X D3 F B2 Acid 14]
fraction fluorescent probe displaced, Screen (Acid 14): 0.053
fraction fluorescent probe displaced, Replicate (Acid 14): 0.10

O=C1CCNC(=O)[C@H](Cc2ccccc2)NC(=O)[C@H](CNC(=O)c2ccc(Cl)cc2)NC(=O)CCSSCCN1 [X D3 F B2 Acid 25]
fraction fluorescent probe displaced, Screen (Acid 25): -0.00813
fraction fluorescent probe displaced, Replicate (Acid 25): 0.0211

O=C(/C=C/c1ccccc1)NC[C@@H]1NC(=O)CCSSCCNC(=O)CCNC(=O)[C@H](Cc2ccccc2)NC1=O [X D3 F B2 Acid 91]
fraction fluorescent probe displaced, Screen (Acid 91): 0.0563
fraction fluorescent probe displaced, Replicate (Acid 91): -0.0333

O=C1CCSSCCNC(=O)[C@H]2CCCN(C2)C(=O)[C@H](Cc2ccccc2)NC(=O)[C@H](CNC(=O)c2ccc(Cl)s2)N1 [X D3 F B4 Acid 14]
fraction fluorescent probe displaced, Screen (Acid 14): 0.053
fraction fluorescent probe displaced, Replicate (Acid 14): -0.03

O=C1CCSSCCNC(=O)c2cccc(c2)CNC(=O)C(Cc2ccccc2)NC(=O)C(CNC(=O)c2ccc(Cl)cc2)N1 (centres unmarked) [X D3 F B5 Acid 25]
fraction fluorescent probe displaced, Screen (Acid 25): 0.0569
fraction fluorescent probe displaced, Replicate (Acid 25): 0.10

O=C1CCSSCCNC(=O)[C@@H]2CCCN2C(=O)[C@H](Cc2c[nH]c3ccccc23)NC(=O)[C@H](CNC(=O)c2ccc(Cl)s2)N1 [X D3 W B1 Acid 14] ([Mpa][Dap](2Thenoyl(5-Cl))WP-Cysteamide; disulfide 1-C)
fraction fluorescent probe displaced, Screen (Acid 14): 0.14
fraction fluorescent probe displaced, Replicate (Acid 14): 0.17

O=C1CCSSCCNC(=O)[C@@H]2CCCN2C(=O)[C@H](Cc2c[nH]c3ccccc23)NC(=O)[C@H](CNC(=O)c2ccc(Cl)cc2)N1 [X D3 W B1 Acid 25] ([Mpa][Dap](Benzoyl(4-Cl))WP-Cysteamide; disulfide 1-C)
fraction fluorescent probe displaced, Screen (Acid 25): 0.12
fraction fluorescent probe displaced, Replicate (Acid 25): 0.22

O=C1CCNC(=O)[C@H](Cc2c[nH]c3ccccc23)NC(=O)[C@H](CNC(=O)c2ccc(Cl)s2)NC(=O)CCSSCCN1 [X D3 W B2 Acid 14]
fraction fluorescent probe displaced, Screen (Acid 14): 0.23
fraction fluorescent probe displaced, Replicate (Acid 14): 0.20

O=C1CCNC(=O)[C@H](Cc2c[nH]c3ccccc23)NC(=O)[C@H](CNC(=O)c2ccc(Cl)cc2)NC(=O)CCSSCCN1 [X D3 W B2 Acid 25]
fraction fluorescent probe displaced, Screen (Acid 25): 0.15
fraction fluorescent probe displaced, Replicate (Acid 25): 0.20

O=C(/C=C/c1ccccc1)NC[C@@H]1NC(=O)CCSSCCNC(=O)CCNC(=O)[C@H](Cc2c[nH]c3ccccc23)NC1=O [X D3 W B2 Acid 91]
fraction fluorescent probe displaced, Screen (Acid 91): 0.19
fraction fluorescent probe displaced, Replicate (Acid 91): 0.0168

O=C1CCSSCCNC(=O)[C@H]2CCCN(C2)C(=O)[C@H](Cc2c[nH]c3ccccc23)NC(=O)[C@H](CNC(=O)c2ccc(Cl)s2)N1 [X D3 W B4 Acid 14]
fraction fluorescent probe displaced, Screen (Acid 14): 0.20
fraction fluorescent probe displaced, Replicate (Acid 14): 0.0465

O=C(/C=C/c1ccccc1)NC[C@@H]1NC(=O)CCSSCCNC(=O)[C@H]2CCCN(C2)C(=O)[C@H](Cc2c[nH]c3ccccc23)NC1=O [X D3 W B4 Acid 91]
fraction fluorescent probe displaced, Screen (Acid 91): 0.14
fraction fluorescent probe displaced, Replicate (Acid 91): 0.04

O=C1CCSSCCNC(=O)c2cccc(c2)CNC(=O)[C@H](Cc2c[nH]c3ccccc23)NC(=O)[C@H](CNC(=O)c2ccc(Cl)s2)N1 [X D3 W B5 Acid 14]
fraction fluorescent probe displaced, Screen (Acid 14): 0.26
fraction fluorescent probe displaced, Replicate (Acid 14): 0.22
